In paper PMC3024946, “Hydroxyproline-containing collagen analogs trigger the release and activation of collagen-sequestered proMMP-2 by competition with prodomain-derived peptide P33-42” (Fibrogenesis & Tissue Repair, 2011):
“Also recorded” adds a separate entry of the source.

Target: T1, proMMP-2 / CI (Homo sapiens, UniProt P08253)
T1 construct: prodomain-containing proMMP-2 or proMMP-9; purchased Invitek
T1 sequence (P08253 30-660 limits assumed): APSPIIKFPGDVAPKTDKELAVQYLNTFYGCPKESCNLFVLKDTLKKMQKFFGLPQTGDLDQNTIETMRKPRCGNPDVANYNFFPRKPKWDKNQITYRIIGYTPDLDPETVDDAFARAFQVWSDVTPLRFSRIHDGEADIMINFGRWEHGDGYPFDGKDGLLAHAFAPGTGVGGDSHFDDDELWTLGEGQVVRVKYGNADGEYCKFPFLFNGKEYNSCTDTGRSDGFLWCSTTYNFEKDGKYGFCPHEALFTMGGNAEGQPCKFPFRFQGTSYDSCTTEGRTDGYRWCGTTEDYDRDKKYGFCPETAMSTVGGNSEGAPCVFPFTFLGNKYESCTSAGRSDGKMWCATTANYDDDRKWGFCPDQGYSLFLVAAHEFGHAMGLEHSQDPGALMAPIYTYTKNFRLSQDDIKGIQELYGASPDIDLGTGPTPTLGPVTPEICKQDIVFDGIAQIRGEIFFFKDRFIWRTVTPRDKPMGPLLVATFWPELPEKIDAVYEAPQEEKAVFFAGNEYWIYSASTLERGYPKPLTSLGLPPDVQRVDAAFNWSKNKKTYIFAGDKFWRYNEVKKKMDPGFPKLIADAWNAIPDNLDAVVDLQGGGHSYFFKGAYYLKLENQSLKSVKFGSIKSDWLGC
Assay: SPR, competition of proMMP-2 binding to CI, MMP activity buffer with Ro 28-2653
Details: for competition with proMMP-2 binding to CI: SPR, MMP activity buffer with Ro 28-2653; for Kd for binding to CI in the presence of 10-fold molar excess of competitor: proMMP-2 100 nM, MMP activity buffer, 1 μM Ro 28-2653, 25°C, mean ± SD, at least three experiments
Experimental: Sensor chip preparations and SPR measurements were performed using a BiacoreX device and the Bia-evaluation software (version 3.2; Biacore, Uppsala, Sweden). The pepsin-resistant triple-helical part of human fibrillar CI (100 μg/ml) in 10 mM acetate coupling buffer, pH 4.8, was immobilized to a dextran matrix-sensor chip at a flow rate of 5 μl/min, resulting in 5,500 resonance units from CI covalently linked via its primary amino groups. The control flow cell was prepared using the coupling buffer without CI. Surfaces were activated and blocked as described previously. Immediately after thawing, pro- and actMMP-2 and pro- and actMMP-9 were diluted to 100 to 250 nM in MMP activity buffer or in PBS and 0.05% (vol/vol) Tween 20. For SPR measurements, flow rates were 10 μl/min at 25°C, and equilibrium was typically reached after 30 to 60 s. The effects of (GPO)10, GAP, (POG)5, (GPP)10 and P33-42 on MMP-2 and MMP-9 binding to CI and their enzymatic activity were determined by adding the binding competitors to the (pro- and act)MMP-2 and MMP-9 solution in 10- to 150-fold molar excesses. Effects independent of MMP-2 and MMP-9 activity were monitored in the presence of Ro 28-2653 (1 μM) during SPR analysis. The gelatinase inhibitor Ro 28-2653 was a generous gift from H.-W. Krell (Roche, Grenzach-Wyhlen, Germany). Sensor surfaces were regenerated with 10 mM glycine, pH 2.3, for 1 min between runs, and sensor chips were used up to 25 times. Kinetic parameters were analyzed using the 1:1 binding model with drifting baseline and subtraction of the control flow cell binding from sensorgrams obtained with immobilized CI. Binding constants (Kd) were calculated from the association (ka) and dissociation rates (kd) obtained from individual binding curves at different concentrations. Individual drifts of the resonance signal were fitted locally, and χ^2 values of 0.2% to 1.0% of the maximum resonance value were considered good fits.

Substance	competition with proMMP-2 binding to CI	Kd for binding to CI in the presence of 10-fold molar excess of competitor [nM]	reduction of affinity / increase in Kd of binding to CI (proMMP-2, 10-fold molar excess of competitor)
H-Gly-Cys-Hyp-(Gly-Pro-Hyp)10-Gly-Cys-Hyp-Gly-NH2 [(GPO)10, triple-helical Hyp-containing collagen analog]	comparable to that of (POG)5; also recorded: effectively compete proMMP-2 binding to CI	155.5 ± 50.2	
H-Gly-Cys-Pro-(Gly-Pro-Pro)10-Gly-Cys-Pro-Gly-NH2 [(GPP)10, Triple-helical Gly-Pro-Pro (GPP)10, devoid of Hyp]	much less efficient in competing with proMMP-2 binding to CI than the nonhelical (POG)5	42.1 ± 39.1	about a sixfold increase
